Laboratory results reported in US6641783B1, “Chromatographic systems with pre-detector eluent switching” (priority 1999, dated 2003).

How the values were obtained:
[1] = Capacity factor of the test solute on an immobilized artificial membrane HPLC column; format: physicochemical; details: EsterIAM.PC C10/C3 column, 15% acetonitrile in PBS, 1 mL/min
From the text: (§1) The chromatographic process represents a reversible equilibrium of solutes between the mobile phases and the stationary phases. The magnitude of solute retention is a direct result from this equilibrium and is typically expressed by a parameter, the capacity factor, k′=(tr−to)/to where to is the dead time and tr is the retention time of the solutes. The capacity factor is therefore a stoichiometric mass distribution equilibrium of solutes between the mobile phases and the stationary phases, and its determination allows the calculation of various physicochemical values according to pre-determined algorithms.
(§2) Unless otherwise indicated, the experimental data reported in this section was collected under the following conditions: UV detection at 280 nm, UV flow cell: 14 μL, mobile phase: 15% acetonitrile in PBS buffer at 1 mL/min., injection volume: 10 μL (sample amount: 2 μg), eluent switch rate: 1 Hz/column, and one pump per column (one binary pump used at two different pumps).
(§3) Retention time data is reported as capacity factors k′=(tr−to)/to. The most critical preliminary data to obtain, however, was to experimentally determine the minimum peak washing times (volumes) needed to obtain good chromatographic peak characterization with the hardware designed and assembled as shown in FIG. 7. […]

[2] = Capacity factor of the test solute on a C8 HPLC column; format: physicochemical; details: 15% acetonitrile in PBS, 1 mL/min
From the text: as §1, §2, §3

[3] = Eluent Switch (parallel chromatography), 1 Hz/column
[4] = No Switch (single column chromatography)

## COc1ccc(C)cc1 [4-methylanisole]
[1]; [3]
  k′ (Capacity factor): 7.13
[1]; [4]
  k′ (Capacity factor): 7.48
[2]; [3]
  k′ (Capacity factor): 23.71
[2]; [4]
  k′ (Capacity factor): 23.04
